Test results as given in the NIST ThermoML archive (doi:10.1021/je2004462).
Numbers after ± are expanded uncertainties.

Tests used:
[1] = for mass density / viscosity: 101.33 kPa, Liquid; for surface tension liquid-gas: Pendant drop shape
[2] = refractive index (Na D-line) (dimensionless); details: 101.33 kPa, Liquid, Standard Abbe refractometry

| Structure (SMILES) | mass density ([1]; 293.15 K) [kg/m3] | viscosity ([1]; 293.15 K) [mPa·s] | surface tension liquid-gas ([1]; 303.15 K) [mN/m] | mass density ([1]; 303.15 K) [kg/m3] | viscosity ([1]; 303.15 K) [mPa·s] | surface tension liquid-gas ([1]; 313.15 K) [mN/m] | mass density ([1]; 313.15 K) [kg/m3] | viscosity ([1]; 313.15 K) [mPa·s] | surface tension liquid-gas ([1]; 323.15 K) [mN/m] | mass density ([1]; 323.15 K) [kg/m3] | viscosity ([1]; 323.15 K) [mPa·s] | surface tension liquid-gas ([1]; 333.15 K) [mN/m] | mass density ([1]; 333.15 K) [kg/m3] | viscosity ([1]; 333.15 K) [mPa·s] | mass density ([1]; 343.15 K) [kg/m3] | viscosity ([1]; 343.15 K) [mPa·s] | mass density ([1]; 353.15 K) [kg/m3] | viscosity ([1]; 353.15 K) [mPa·s] | refractive index ([2]; 293.15 K) | refractive index ([2]; 303.15 K) | other results |
| --- | --- | --- | --- | --- | --- | --- | --- | --- | --- | --- | --- | --- | --- | --- | --- | --- | --- | --- | --- | --- | --- |
| CCn1cc[n+](C)c1.O=S(=O)([O-])C(F)(F)C(F)F | 1435.84 ± 2 | 117.43 ± 5.6 | 43.29 ± 0.47 | 1427.44 ± 2 | 72.64 ± 1.7 | 42.45 ± 0.46 | 1419.04 ± 2 | 48.32 ± 0.87 | 42.03 ± 0.45 | 1410.67 ± 2 | 33.94 ± 0.6 | 41.43 ± 0.45 | 1402.33 ± 1.9 | 25.05 ± 0.44 | 1394.02 ± 1.9 | 18.86 ± 0.33 | 1385.76 ± 1.9 | 14.74 ± 0.26 | 1.441 ± 0.00047 | 1.43833 ± 0.00047 | refractive index ([2]; 313.15 K): 1.4357 ± 0.00047; refractive index ([2]; 323.15 K): 1.43304 ± 0.00047; refractive index ([2]; 333.15 K): 1.43041 ± 0.00047; refractive index ([2]; 343.15 K): 1.42777 ± 0.00047; refractive index ([2]; 353.15 K): 1.42514 ± 0.00047 |
| CCOS(=O)(=O)[O-].CCn1cc[n+](C)c1 [1-ethyl-3-methylimidazolium ethyl sulfate] | 1241.86 ± 1.3 | 122.07 ± 6 | 47.34 ± 0.5 | 1235.06 ± 1.3 | 75.1 ± 1.9 | 46.67 ± 0.5 | 1228.28 ± 1.3 | 49.84 ± 0.9 | 46.17 ± 0.49 | 1221.54 ± 1.2 | 35.34 ± 0.62 | 45.53 ± 0.49 | 1214.84 ± 1.2 | 25.93 ± 0.45 | 1208.19 ± 1.2 | 19.36 ± 0.34 | 1201.58 ± 1.2 | 15.12 ± 0.26 | 1.47959 ± 0.00047 | 1.47694 ± 0.00047 | refractive index ([2]; 313.15 K): 1.47429 ± 0.00047; refractive index ([2]; 323.15 K): 1.47158 ± 0.00047; refractive index ([2]; 333.15 K): 1.46893 ± 0.00047; refractive index ([2]; 343.15 K): 1.46625 ± 0.00047; refractive index ([2]; 353.15 K): 1.46359 ± 0.00047 |
